Read-outs that look alike come from different tables or passages of the source.
Tests used:
[1] = test system: human Toledo (DLBCL) mouse xenograft tumor; type: in vivo; conditions: Compound 6 100 mg/kg p.o. qd×14 days; rituximab 4 mg/kg i.v. qw; day 15
Method: (§1) All animal experiments were strictly in accordance with the laboratory animal use and management practices of GenePharma Co., Ltd. and Ascentage Pharma Group Co., Ltd. The calculation of relevant parameters referred to the Chinese CFDA “Guidelines for Non-Clinical Research Techniques of Cytotoxic Antitumor Drugs”.
(§2) The animal body weight and tumor size were measured twice weekly during the experiment. The conditions and death of the animals were observed every day. Routine monitoring included the effects of tumor growth and treatment on normal animal behaviors, including activity, feeding and drinking situations, weight gain or loss, eyes, coat and other abnormalities in the experimental animals. The deaths and clinical symptoms observed during the experiment were recorded in the raw data. The entire operations of administration, measurement of mouse body weight and tumor volume were performed in a clean bench. Plasma and tumor tissues were collected, weighed and photographed after the end of the last administration according to the experimental protocol. Plasma and tumor samples were snap frozen and stored at −80° C.
(§3) Tumor volume (TV) was calculated as: TV=a×b2/2, in which a and b represented the length and width of the tumor as measured, respectively. The relative tumor volume (RTV) was calculated as: RTV=Vt/V1, in which V1 was the tumor volume at the time of grouping and administration, and Vt was the tumor volume measured on a day after administration. […] Change of body weight %=(measured body weight−body weight at the time of grouping)/body weight at the time of grouping×100%.
(§4) If the synergy factor was >1, there was a synergistic effect; if the synergistic factor=1, there was an additive effect; if the synergistic factor <1, there was an antagonistic effect.

OCI-LY8 cells = test: in vitro experiment, sensitivity of OCI-LY8 cells; type: cell-based; conditions: OCI-LY8 human DLBCL cell line
Method: (1) The experimental method was as described in Example 1. In the in vitro experiment, OCI-LY8 cells were also human DLBCL cell lines sensitive to Compound 6 treatment, with an IC50 value of 0.006±0.002 μM. Therefore, this experiment used OCI-LY8 cells to establish a mouse xenograft tumor model (A. Esteve-Arenys et al. The BET bromodomain inhibitor CP1203 overcomes resistance to ABT-199 (venetoclax) by downregulation of BFL-1/A1 in in vitro and in vivo models of MYC+/BCL2+ double hit lymphoma. Oncogene 37(14). January 2018), and thereby evaluated the anti-tumor effect of Compound 6 in combination with rituximab.

[2] = test system: human OCI-LY8 (DLBCL) mouse xenograft tumor; type: in vivo
Method: as §1, §2, §3, §4
Bendamustine was an FDA approved drug for the treatment of B-cell non-Hodgkin's lymphoma.

DOHH2 = test: in vitro cell experiments, sensitivity of DOHH2 cell line; type: cell-based; conditions: DOHH2 human follicular lymphoma cell line
Toledo = test: in vitro cell experiments, sensitivity of Toledo cell line; type: cell-based; conditions: Toledo human DLBCL cell line
[3] = test system: human DOHH2 (FL) mouse xenograft tumor; type: in vivo; conditions: day 15; for Tumor remission on the 15th day after administration: CR: animals with CR/group; for Tumor remission on the 15th day after administration: PR: animals with PR/group
Method: as §1, §2, §3, §4
CHOP included: cyclophosphamide, 20 mg/kg, intraperitoneal injection, administered on the 1st and 9th days; doxorubicin, 2 mg/kg, intravenous injection, administered on the 1st day; vincristine, 0.1 mg/kg, intravenous injection, administered on the 1st and 9th days; prednisone, 0.5 mg/kg, orally administered on the 1st day. […] The injected dose was 10 mL/kg (0.2 mL/mouse). The agent was dissolved in saline. […] The agent was dissolved in saline. Vincristine (batch number 0708v1) was purchased from Shenzhen Main Luck Pharmaceuticals Inc. Vincristine was administered by intravenous injection at a dose of 10 mL/kg (0.2 mL/mouse). The agent was dissolved in saline. Prednisone (batch number M0412A) was purchased from Dalian Meilun Biotechnology Co., Ltd. Prednisone was administered by oral gavage at a dose of 10 mL/kg (0.2 mL/mouse). […] The dosage formulations were prepared freshly prior to use. The preparation and use of the dosage formulations were always carried out under sterile conditions.

[4] = Cpd. 6 25 mg/kg p.o. qd×15d, day 11
[5] = Cpd. 6 50 mg/kg p.o. qd×15d, alone or + rituximab 4 mg/kg i.v. qw×2 wks, day 11
[6] = Cpd. 6 100 mg/kg p.o. qd×15d, alone or + rituximab 4 mg/kg i.v. qw×2 wks, day 11
[7] = Table 3: Cpd. 6 100 mg/kg p.o. qd, bendamustine 25 mg/kg i.v., rituximab 10 mg/kg i.v., day 11
[8] = Table 4: Cpd. 6 100 mg/kg p.o. qd, bendamustine 25 mg/kg, rituximab 10 mg/kg
[9] = Table 4: Cpd. 6 100 mg/kg, bendamustine 25 mg/kg, rituximab 10 mg/kg
[10] = Table 5: Cpd. 6 100 mg/kg, CHOP regimen
[11] = rituximab alone 4 mg/kg i.v. qw×2 wks, day 11

In the case of `O=C(NS(=O)(=O)c1ccc(NC[C@H]2COCCO2)c([N+](=O)[O-])c1)c1ccc(N2CCN(CC3=C(c4ccc(Cl)cc4)CC4(CCC4)CC3)CC2)cc1Oc1cnc2[nH]ccc2c1` [Compound 6, (S)-N-((4-(((1,4-dioxan-2-yl)methyl)amino)-3-nitrophenyl)sulfonyl)-2-((1H-pyrrolo[2,3-b]pyridin-5-yl)oxy)-4-(4-((6-(4-chlorophenyl)spiro[3.5]non-6-en-7-yl)methyl)piperazin-1-yl)benzamide], the “RTV on the 15th day after administration (mean ± standard error)” value [1] is reported as 4.93 ± 0.41 ^, the “T/C (%) on the 15th day after administration” value (“T/C (%) on the 15th day” for short) [1] is reported as 38% and the IC50 (OCI-LY8 cells) is reported as 6 ± 2 nM. For the same compound, the “RTV on the 11th day after administration (mean ± standard error)” value [2, 4] was 6.87 ± 2.1 **^, the “T/C (%) on the 11th day after administration” value (“T/C (%) on the 11th day” below) [2, 4] was 37% and the “Tumor status on the 11th day after administration (remission rate %)” value (“Tumor status … (remission rate %)” for short) [2, 4] was 0%. For the same compound, the “Tumor status on the 11th day after administration: CR” value (“Tumor status on the 11th day … CR” below) ([2]; Cpd. 6 25 mg/kg p.o. qd×15d, day 11, animals with CR/group) was 0/5 CR,, the “Tumor status on the 11th day after administration: PR” value (“Tumor status on the 11th day … PR” below) ([2]; Cpd. 6 25 mg/kg p.o. qd×15d, day 11, animals with PR/group) was 0/5 and the “RTV on the 11th day after administration (mean ± standard error)” value [2, 5] was 6.19 ± 1.86. The “T/C (%) on the 11th day” value [2, 5] was 33%, the “Tumor status … (remission rate %)” value ([2]; Cpd. 6 50 mg/kg, alone or + rituximab 4 mg/kg, day 11) was 0% and the “Tumor status on the 11th day … CR” value ([2]; Cpd. 6 50 mg/kg, alone or + rituximab 4 mg/kg, day 11, animals with CR/group) was 0/5 CR,. For the same compound, the “Tumor status on the 11th day … PR” value ([2]; Cpd. 6 50 mg/kg, alone or + rituximab 4 mg/kg, day 11, animals with PR/group) was 0/5, the “RTV on the 11th day after administration (mean ± standard error)” value [2, 6] was 5.54 ± 1.78 and the “T/C (%) on the 11th day” value [2, 6] was 30%. For the same compound, the “Tumor status … (remission rate %)” value ([2]; Cpd. 6 100 mg/kg, alone or + rituximab 4 mg/kg, day 11) was 0%, the “Tumor status on the 11th day … CR” value ([2]; Cpd. 6 100 mg/kg, alone or + rituximab 4 mg/kg, day 11, animals with CR/group) was 0/5 CR, and the “Tumor status on the 11th day … PR” value ([2]; Cpd. 6 100 mg/kg, alone or + rituximab 4 mg/kg, day 11, animals with PR/group) was 0/5. For the same compound, the “RTV on the 11th day after administration (mean ± standard error)” value [2, 7] was 5.54 ± 1.78, the “T/C (%) on the 11th day” value [2, 7] was 30% and the “On the 11th day after administration (remission rate %)” value ([2]; Table 3: Cpd. 6 100 mg/kg, bendamustine 25 mg/kg, rituximab 10 mg/kg, day 11) was 0%. For the same compound, the “On the 11th day after administration: CR” value ([2]; Table 3: Cpd. 6 100 mg/kg, bendamustine 25 mg/kg, rituximab 10 mg/kg, day 11, animals with CR/group) was 0/5 CR,, the “On the 11th day after administration: PR” value ([2]; Table 3: Cpd. 6 100 mg/kg, bendamustine 25 mg/kg, rituximab 10 mg/kg, day 11, animals with PR/group) was 0/5 and the “sensitivity of cell line to Compound 6 treatment” value (DOHH2) was “relatively sensitive”. The IC50 (Toledo) was 49 ± 5 nM, the “RTV on the 15th day after administration (mean ± standard error)” value [3, 8] was 3.06 ± 0.79 and the “T/C (%) on the 15th day” value [3, 8] was 28%. For the same compound, the “Tumor remission rate on the 15th day after administration %” value [3, 9] was 0%, the “Tumor remission on the 15th day after administration: CR” value [3, 9] was 0/5 and the “Tumor remission on the 15th day after administration: PR” value [3, 9] was 0/5. For the same compound, the “RTV on the 15th day after administration (mean ± standard error)” value ([3]; Table 5: Cpd. 6 100 mg/kg, CHOP (cyclophosphamide 20 mg/kg i.p. d1, d9; doxorubicin 2 mg/kg i.v. d1; vincristine 0.1 mg/kg i.v. d1, d9; prednisone 0.5 mg/kg p.o. d1)) was 3.06 ± 0.79, the “T/C (%) on the 15th day” value [3, 10] was 28% and the “Tumor remission rate on the 15th day after administration %” value [3, 10] was 0%. For the same compound, the “Tumor remission on the 15th day after administration: CR” value [3, 10] was 0/5 and the “Tumor remission on the 15th day after administration: PR” value [3, 10] was 0/5.

With Rituximab [reference compound] the “RTV on the 15th day after administration (mean ± standard error)” value [1] was 8.99 ± 2.15 ^, the “T/C (%) on the 15th day” value [1] was 69% and the “RTV on the 11th day after administration (mean ± standard error)” value [2, 11] was 1.38 ± 0.69. The “T/C (%) on the 11th day” value [2, 11] was 7%, the “Tumor status … (remission rate %)” value ([2]; rituximab alone 4 mg/kg, day 11) was 80% and the “Tumor status on the 11th day … CR” value ([2]; rituximab alone 4 mg/kg, day 11, animals with CR/group) was 0/5 CR,. For the same compound, the “Tumor status on the 11th day … PR” value ([2]; rituximab alone 4 mg/kg, day 11, animals with PR/group) was 4/5, the “Tumor status on the 11th day … PR” value ([2]; rituximab alone 4 mg/kg, day 11, animals with PR/group, listed as rituximab) was “Four out of five” and the “RTV on the 22nd day after administration (mean ± standard error)” value ([2]; rituximab alone 4 mg/kg, day 22, after drug discontinuance) was 20.04 ± 5.38 ^.

Reference: patent publication US11554127B2, “Synergistic antitumor effect of Bcl-2 inhibitor combined with rituximab and/or bendamustine or Bcl-2 inhibitor combined with CHOP” (ASCENTAGE PHARMA (SUZHOU) CO., LTD., priority 2018, dated 2023)
